Test results published in patent US9366676B2, “Fluorescent chemical compounds having high selectivity for double stranded DNA, and methods for their use” (LIFE TECHNOLOGIES CORPORATION, priority 2005, dated 2016).

How the values were obtained:
double stranded DNA = conditions: cited from earlier work
DNA = conditions: cited from earlier work
Jurkat cells = test: Flow cytometry with induced apoptosis cells (apoptosis time course); type: cell-based, human
Description: Live Jurkat cells were split into 13 samples and each cell split was suspended in complete RMPI/10% FBS. Samples was treated with 10 μM Camptothecin in DMSO to induce apoptosis, or treated with DMSO alone to act as a control. Treatment and control time was 1, 2, 3, 4, 5, and 6 hours, and a time zero point. The cell suspensions were then incubated at 37° C./5% CO2 for a designated time. This type of experiment is sometimes called an “apoptosis time course”. Each split was washed once in complete RPMI media/10% Fetal Bovine Serum (FBS) and resuspended at 1×10^6 cells/mL in complete RPMI media with 10% FBS. […] A SYTOX® Blue stain vs compound (24) stain plot was made and a gate was made on compound (24) stain positive and SYTOX® Blue stain negative cells to gate out dead cells, and to ensure only live cells were analyzed. Fluorescence from the SYTOX® Blue stain was collected using 405 nm excitation laser with 450/50 bandpass and compound (24) stain fluorescence was collected at 585/42 bandpass using the 488 nm excitation laser as well as collected at the same 585/42 bandpass using the 532 nm excitation laser. […] The data was further analyzed using ModFit LT Flow Cytometry Modeling Software from Verity Software House, Inc. to look at ratio of G2/G1 and the CV of G1 phase and the percent sub-G0 population (apoptotic population).

[1] = system: calf thymus double stranded DNA and ribosomal RNA; test: Determination of DNA/RNA fluorescence ratios; type: binding; conditions: for DNA/RNA (fluorescence ratio): 65 ug/mL calf thymus dsDNA vs 65 ug/mL ribosomal RNA, 10 mM Tris, 1 mM EDTA pH 7.5, ratio of 1 = no selectivity; for ex/em: emission: emission value, second number of ex/em cell; for ex/em: excitation: excitation value, first number of ex/em cell
Description: The tested compound was dissolved as a stock solution in DMSO at a concentration of about 0.1-1.0 mg/mL. The exact concentration is not critical. Three tubes are prepared, each containing the same 1-20 uL of stock solution. The first tube contained 10 mM Tris, 1 mM EDTA (pH 7.5) buffer; the second tube contained buffer and 65 ug/mL calf thymus double stranded DNA; and the third tube contained buffer and 65 ug/mL ribosomal RNA. The tubes were incubated at room temperature for 10-15 minutes with protection from light.
In some cases, it was necessary to dilute the sample to keep the fluorescence signal on-scale. In these cases, all three samples were diluted to the same degree. The ratio of the fluorescence of the compound in the presence of DNA and RNA was determined.
The following compounds were selected as representative of the inventive class of compounds. The fluorescence values in the presence of DNA and RNA were determined as described in the previous Example. […] A ratio of 1 would indicate no selectivity. Excitation and emission values are in nm

[2] = system: Jurkat cells (human T-lymphocyte); test: Flow cytometry cell cycle staining, live Jurkat cells; type: cell-based; conditions: 5 μM, 37° C., 60 minutes, ModFit
Description: Live Jurkat cells (human T-lymphocyte) were suspended at 1×10^6 cells/ml in RPMI media with 10% Fetal Bovine Serum (FBS). 5 μM Compound (20) was added to one mL cell suspension, and incubated at 37° C. for 60 minutes protected from light. Cells were processed using a Becton Dickinson (BD) LSRII Flow Cytometer. A Forward Scatter (FS) vs Side Scatter (SS) dual parameter plot was used to gate main cell population. On gated cells, a dual-parameter plot of Fluorescence-Width vs Fluorescence-Area was used for single cell discrimination gating. Single color fluorescence was collected at 530/30 bandpass using the 488 nm excitation laser, collecting 30,000 events at flow rate of about 200 events/second. The data was further analyzed using ModFit LT Flow Cytometry Modeling Software from Verity Software House, Inc. to determine the ratio of G2/G1 and the CV of G1 phase.

Row | Compound | ex/em: emission [1] [nm] | ex/em: excitation [1] [nm] | DNA/RNA (fluorescence ratio) [1] | further results
1 | CN(C)CCCN(CCCN(C)C)c1cc(C=C2Sc3ccccc3N2C)c2ccccc2[n+]1-c1ccccc1 [PicoGreen] |  |  |  | fluorescence enhancement upon binding to double stranded DNA (double stranded DNA): greater than 1000 fold
2 | CCCN(CCCN(C)C)c1cc(/C=C2/Sc3ccccc3N2C)c2ccccc2[n+]1-c1ccccc1 [SYBR Green I] |  |  |  | fluorescence enhancement upon binding to DNA, relative to ethidium bromide (DNA): at least 10 fold; fluorescence quantum yield (DNA): about 0.8
3 | CC[C@@]1(O)C(=O)OCc2c1cc1n(c2=O)Cc2cc3ccccc3nc2-1 [Camptothecin, reference compound] |  |  |  | induction time at which sub-G0 population begins to show (Jurkat cells; 10 μM Camptothecin in DMSO, live Jurkat, time course 0-6 hours): 3 h
4 | COc1cccc(OC)c1-c1ccc2c(c1)sc(C=C1C=C(N3CCN(C)CC3)N(Cc3ccccc3)c3ccccc31)[n+]2C [Compound 20] | 536 | 510 | 4 | G1-phase ([2]; 488 nm excitation, 530/30 bandpass): 47.08%; G2-phase [2]: 6.25%; G2/G1 ratio [2]: 1.83; S-phase [2]: 46.67%
5 | COc1cccc(OC)c1-c1ccc2c(c1)sc(C=C1C=C(SCCN(C)C)N(Cc3ccccc3)c3ccccc31)[n+]2C [Compound 24] | 570 | 520 | 4.6 | excitation maximum ([1]; Example 114): 520 nm; emission maximum ([1]; Example 114 (orange)): 569 nm; staining of sub-G0 (apoptotic) population (Jurkat cells; 10 μM, 37° C., 30 minutes, live Jurkat treated with 10 μM Camptothecin, 488 nm or 532 nm excitation): stains live cells for identification of a sub-G0 population in apoptotic cells which increases with time of induction
6 | COc1cccc(OC)c1-c1ccc2c(c1)sc(C=C1C=CN(Cc3ccc(CN4CCOCC4)cc3)c3ccccc31)[n+]2C [Compound 45] | 541 | 511 | 13.2 | 
7 | COc1cccc(OC)c1-c1ccc2c(c1)sc(C=C1C=C(n3ccnc3)N(Cc3ccccc3)c3ccccc31)[n+]2C [Compound 19] | 553 | 525 | 7.3 | 
8 | C#CCN1C(N(CCC)CCCN(C)C)=CC(=Cc2sc3cc(-c4c(OC)cccc4OC)ccc3[n+]2C)c2ccccc21 [Compound 34] | 532 | 503 | 5.8 | 
9 | COc1cccc(OC)c1-c1ccc2c(c1)sc(C=C1C=C(N3CCNCC3)N(Cc3ccccc3)c3ccccc31)[n+]2C [Compound 21] | 534 | 510 | 5.4 | 
10 | COc1cccc(OC)c1-c1ccc2c(c1)sc(C=C1C=CN(Cc3ccc(CN4CCN(C)CC4)cc3)c3ccccc31)[n+]2C [Compound 44] | 540 | 510 | 22 | 
11 | CNCCN(C)C1=CC(=Cc2sc3cc(-c4c(OC)cccc4OC)ccc3[n+]2C)c2ccccc2N1Cc1ccccc1 [Compound 22] | 534 | 505 | 4.7 | 

Continued, in another order:

Row | ex/em: emission [1] [nm] | ex/em: excitation [1] [nm] | Compound | DNA/RNA (fluorescence ratio) [1] | further results
12 | 540 | 510 | COc1cccc(OC)c1-c1ccc2c(c1)sc(C=C1C=CN(Cc3ccccc3)c3ccccc31)[n+]2C [Compound 53] | 60 | 
13 | 525 | 496 | COc1cccc(OC)c1-c1ccc2c(c1)sc(/C=C1\C=C(N(C)CCCC(=O)O)N(Cc3ccccc3)c3ccccc31)[n+]2C [Compound 109] | 121 | 
14 | 541 | 513 | COc1cccc(OC)c1-c1ccc2c(c1)sc(C=C1C=CN(Cc3ccncc3)c3ccccc31)[n+]2C [Compound 55] | 10.9 | 
15 | 534 | 511 | C[n+]1cccc(-c2ccc3c(c2)sc(C=C2C=CN(Cc4ccccc4)c4ccccc42)[n+]3C)c1 [Compound 99] | 1.3 | 
16 | 524 | 501 | Cc1cccc(C)c1-c1ccc2c(c1)sc(C=C1C=C(N(C)CCCN(C)C)N(Cc3ccccc3)c3ccccc31)[n+]2C [Compound 70] | 2.7 | 
17 | 538 | 513 | C[n+]1c(C=C2C=CN(Cc3ccccc3)c3ccccc32)sc2cc(-c3cccnc3)ccc21 [Compound 97] | 3.7 | 
18 | 563 | 522 | CCN(CC)Cc1ccc(C2=CC(=Cc3sc4cc(-c5ccccc5)ccc4[n+]3C)c3ccccc3N2c2ccccc2)cc1 [Compound 91] | 1.5 | 
19 | 514 | 466 | C[n+]1c(C=C2C=CN(Cc3ccccc3)C(c3ccccc3)=C2)sc2cc(-c3ccccc3)ccc21 [Compound 93] | 1.5 | 
20 | 527 | 497 | COc1cccc(OC)c1-c1ccc2c(c1)sc(/C=C1\C=C(N(C)CCCC(=O)NCCOCCOCCOCCO)N(Cc3ccccc3)c3ccccc31)[n+]2C [Compound 111] | 64 | 
21 | 541 | 512 | COc1cccc(OC)c1-c1ccc2c(c1)sc(C=C1C=CN(Cc3ccc(CN(C)CCCN(C)C)cc3)c3ccccc31)[n+]2C [Compound 47] | 8.6 | 
22 | 523 | 494 | Cc1cccc(C)c1-c1ccc2c(c1)sc(C=C1C=C(N(C)CCCN(C)C)N(c3ccccc3)c3ccccc31)[n+]2C [Compound 69] | 3.2 | 
